# Like-named read-outs stand apart in the source and are kept apart here.
# Columns and labels:
# [1] = Pharmacokinetic test (BA, CLtot); format: in vivo; details: rat, plasma, SD rats
# Procedure: • (1) Animals: SD rats were used • (2) Breeding conditions: SD rats were allowed to freely take solid food and sterilized tap water. • (3) Dose and grouping: orally or intravenously administered at a predetermined dose; grouping was as follows (Dose depends on the compound)
# Oral administration: 1 mg/kg (n=2)
# The total body clearance (CLtot) was calculated by dividing the dose by the AUC of the intravenous administration group.
# [2] = molecular target: Rat P2X3 receptor (Rattus norvegicus (Rat), UniProt P49654); assay: Evaluation of rat P2X3 receptor inhibitory activity in the presence of rat serum albumin (RSA); format: cell-based; details: read-out: ratP2X3 + RSA IC50
# Procedure: Rat P2X3 receptor gene (GenBank accession number NM_031075) was expressed in C6BU-1 cell. The C6BU-1 cells were seeded in a 96-well micro titer plate at a concentration of 2500 cells/well and cultured in the medium (7.0% fetal bovine serum, 7.0% horse serum, and 1% antibiotic and antifungal in DMEM) for one day at 37° C. under 5% carbon dioxide atmosphere. The plasmid was transfected into the cells using transfection reagent FuGENE6 (Promega). The transfected cells were cultured in the medium for one day at 37° C. under 5% carbon dioxide atmosphere. The medium was replaced with 4 μM Fluo-4-AM solution (pH 7.5) containing 20 mM HEPES, 137 mM NaCl, 5.27 mM KCl, 0.9 mM MgCl2, 1.26 mM CaCl2, 5.6 mM D-glucose, 2.5 mM probenecid, 10% RSA, and 0.08% Pluronic F-127, and incubated at 37° C. under 5% dioxide carbon atmosphere for one hour. The plate was washed with washing buffer (20 mM HEPES, 137 mM NaCl, 5.27 mM KCl, 0.9 mM MgCl2, 1.26 mM CaCl2, 5.6 mM D-glucose, 2.5 mM probenecid, pH 7.5), and each well was added with 40 μL of this buffer. The plate was placed in High-Throughput Screening System FDSS 3000 (Hamamatsu Photonics K.K.). Measurement of fluorescence intensity by FDSS 3000 was started, and 40 μL of DMSO solutions containing 1% RSA (final concentrations) and different concentrations of the test compound as prepared by dilution with dilution buffer (20 mM HEPES, 137 mM NaCl, 5.27 mM KCl, 0.9 mM MgCl2, 1.26 mM CaCl2, 5.6 mM D-glucose, 2.5 mM probenecid, 0.1% Pluronic F-127, pH 7.5) were dispensed to each well through the built-in automatic dispenser. Five minutes after, 50 nM ATP solution (50 μL) prepared by dilution with the dilution buffer was dispensed through the built-in automatic dispenser, and the measurement of fluorescence intensity was continued for 4 min. For each well, the specific maximum fluorescence intensity was calculated as the ratio of the maximum fluorescence intensity after addition of the ATP solution to the fluorescence intensity at the starting of the measurement. […] FDSS software (Hamamatsu Photonics K.K.) was used for calculation of the specific maximum fluorescence intensity. IC50 was calculated using Microsoft Excel (Microsoft Corporation) and XLfit (idbs Ltd.).
# [3] = molecular target: human P2X3 receptor (Homo sapiens (Human), UniProt P56373); assay: Evaluation of human P2X3 receptor inhibitory activity (FLIPR Ca fluorescence, ATP-evoked); format: cell-based; details: C6BU-1 cells stably expressing human P2X3 receptor
# Procedure: Stably expressing cell line (C6BU-1 cell transfected with human P2X3 receptor gene (GenBank accession number Y07683) was used. The cells were seeded in a 384-well PDL-coated microtiter plate at a concentration of 3000 cells/well and cultured in the medium (8.3% fetal bovine serum, 8.3% horse serum, and 1% antibiotic and antifungal in DMEM) for one day at 37° C. under 5% carbon dioxide atmosphere. The medium was replaced with 4 μM Fluo-3-AM solution (20 mM HEPES, 137 mM NaCl, 2.7 mM KCl, 0.9 mM MgCl2, 5.0 mM CaCl2, 5.6 mM D-glucose, 2.5 mM probenecid, 0.5% BSA, and 0.04% Pluronic P-127, pH 7.5) and incubated at 37° C. under 5% dioxide carbon atmosphere for one hour. The plate was washed with washing buffer (20 mM HEPES, 137 mM NaCl, 2.7 mM KCl, 0.9 mM MgCl2, 5.0 mM CaCl2, 5.6 mM D-glucose, 2.5 mM probenecid, pH 7.5), and each well was added with 20 μL of the washing buffer. The plate was placed in High-Throughput Screening System FLIPR 384 (Molecular Device Co.). Measurement of fluorescence intensity by […] was started, and 20 μL of DMSO solutions containing different concentrations of the test compound as prepared by dilution with dilution buffer (20 mM HEPES, 137 mM NaCl, 2.7 mM KCl, 0.9 mM MgCl2, 5.0 mM CaCl2, 5.6 mM D-glucose, 2.5 mM probenecid, 0.1% Pluronic F-127, pH 7.5) were dispensed to each well through the built-in automatic dispenser. Five minutes after, 150 nM ATP solution (25 μL) prepared by dilution with the dilution buffer was dispensed through the built-in automatic dispenser, and the measurement of fluorescence intensity was continued for 4 min. For each well, the specific maximum fluorescence intensity was calculated as the ratio of the maximum fluorescence intensity after addition of the ATP solution to the fluorescence intensity at the starting of the measurement. […] The specific maximum fluorescence intensify and IC50 were calculated using Spotfire (Science & Technology Systems. Inc.)
# [4] = Solubility test (1% DMSO, artificial intestinal juice pH 6.8); format: physicochemical; details: artificial intestinal juice pH 6.8 with 1% DMSO, 25 °C, fassgf or other biorelevant, kinetic from dmso stock, artificial intestinal juice pH 6.8, 25 degrees Celsius, read-out: Solubulity
# Procedure: The solubility of a compound was determined under a condition in which 1% DMSO was added. 10 mmol/L compound solution was prepared using DMSO, and then 2 μL of the compound solution was added to 198 μL of artificial intestinal juice in pH 6.8 (to 250 mL of 0.2 mol/L potassium dihydrogen phosphate reagent solution was added 118 mL of 0.2 mol/L NaOH reagent solution and water to provide a final volume of 1000 mL). After standing at 25 degrees Celsius for 18 hours, the mixed solution was filtrated with suction. The filtrate was diluted twice with methanol/water (1/1), and then a concentration in the filtration was measured with HPLC or LC/MS/MS by the absolute calibration method.
# [5] = molecular target: CYP1A2 (Homo sapiens (Human), UniProt P05177); assay: CYP inhibition test, CYP1A2; format: in vitro ADME; details: pooled human hepatic microsome; 7-ethoxyresorufin-O-deethylation
# Procedure: (§1) Using commercially available pooled human hepatic microsome, and employing, as markers, 7-ethoxyresorufin-O-deethylation (CYP1A2), tolbutamide methyl-hydroxylation (CYP2C9), mephenytoin 4′-hydroxylation (CYP2C19), dextromethorphan O-demethylation (CYP2D6), and terfenedine hydroxylation as typical substrate metabolism reactions of human main five CYP enzyme forms (CYP1A2, 2C9, 2C19, 2D6, 3A4), an inhibitory degree of each metabolite production amount by a test compound was assessed.
# (§2) The reaction conditions were as follows: substrate, 0.5 μmol/L ethoxyresorufin (CYP1A2), 100 μmol/L tolbutamide (CYP2C9), 50 μmol/L S-mephenitoin (CYP2C19), 5 μmol/L dextromethorphan (CYP2D6), 1 μmol/L terfenedine (CYP3A4); reaction time, 15 minutes; reaction temperature, 37° C. enzyme, pooled human hepatic microsome 0.2 mg protein/mL; test, drug concentration, 1.0, 5.0, 10, 20 μmol/L (four points).
# (§3) Each five kinds of substrates, human hepatic microsome, or a test drug in 50 mmol/L Hepes buffer as a reaction solution was added to a […] at the composition as described above, NADPH, as a cofactor was added to initiate metabolism reactions as markers and, after the incubation at 37° C. for 15 minutes, a methanol/acetonitrile=1/1 (v/v) solution was added to stop the reaction. After the centrifugation at 3000 rpm for 15 minutes, resorufin (CYP1A2 metabolite) in the supernatant was quantified by a fluorescent multilabel counter and tributamide hydroxide (CYP2CP metabolite), mephenytoin 4′hydroxide (CYP2C19 metabolite), […] (CYP2D6 metabolite), and terfenadine alcohol (CYP3A4 metabolite) were quantified by LC/MS/MS.
# (§4) Addition of only DMSO being a solvent dissolving a drug to a reaction system was adopted as a control (100%), remaining activity (%) was calculated at each concentration of a test drug added as the solution and IC50 was calculated by reverse presumption by a logistic model using a concentration and an inhibition rate.
# [6] = molecular target: CYP2C9 (Homo sapiens (Human), UniProt P11712); assay: CYP inhibition test, CYP2C9; format: in vitro ADME; details: pooled human hepatic microsome; tolbutamide methyl-hydroxylation
# Procedure: as §1, §2, §3, §4
# [7] = molecular target: CYP2C19 (Homo sapiens (Human), UniProt P33261); assay: CYP inhibition test, CYP2C19; format: in vitro ADME; details: pooled human hepatic microsome; mephenytoin 4′-hydroxylation
# Procedure: as §1, §2, §3, §4
# [8] = molecular target: CYP2D6 (Homo sapiens (Human), UniProt P10635); assay: CYP inhibition test, CYP2D6; format: in vitro ADME; details: pooled human hepatic microsome; dextromethorphan O-demethylation
# Procedure: as §1, §2, §3, §4
# [9] = molecular target: CYP3A4 (Homo sapiens (Human), UniProt P08684); assay: CYP inhibition test, CYP3A4; format: in vitro ADME; details: pooled human hepatic microsome; terfenedine hydroxylation
# Procedure: as §1, §2, §3, §4
# [10] = intravenous administration 0.5 mg/kg
# [11] = intravenous administration 0.5 mg/kg, read-out: AUC (iv)
# [12] = oral administration 1 mg/kg, read-out: AUC (po)
# Sequence of CYP2D6 (P10635 whole entry): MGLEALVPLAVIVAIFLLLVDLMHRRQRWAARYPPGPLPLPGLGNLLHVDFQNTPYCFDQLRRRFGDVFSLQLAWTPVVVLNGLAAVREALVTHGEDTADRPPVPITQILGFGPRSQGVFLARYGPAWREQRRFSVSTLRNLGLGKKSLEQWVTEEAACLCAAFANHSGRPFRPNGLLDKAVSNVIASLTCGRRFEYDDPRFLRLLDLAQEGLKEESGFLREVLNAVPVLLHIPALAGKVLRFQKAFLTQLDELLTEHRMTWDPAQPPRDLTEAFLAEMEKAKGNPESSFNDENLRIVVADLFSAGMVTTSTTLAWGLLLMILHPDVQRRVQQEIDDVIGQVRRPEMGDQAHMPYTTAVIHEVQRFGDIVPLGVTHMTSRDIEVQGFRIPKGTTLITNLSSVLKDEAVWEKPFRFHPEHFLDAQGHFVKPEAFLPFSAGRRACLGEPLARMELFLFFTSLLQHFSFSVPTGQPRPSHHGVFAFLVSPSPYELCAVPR
# Sequence of CYP1A2 (P05177 whole entry): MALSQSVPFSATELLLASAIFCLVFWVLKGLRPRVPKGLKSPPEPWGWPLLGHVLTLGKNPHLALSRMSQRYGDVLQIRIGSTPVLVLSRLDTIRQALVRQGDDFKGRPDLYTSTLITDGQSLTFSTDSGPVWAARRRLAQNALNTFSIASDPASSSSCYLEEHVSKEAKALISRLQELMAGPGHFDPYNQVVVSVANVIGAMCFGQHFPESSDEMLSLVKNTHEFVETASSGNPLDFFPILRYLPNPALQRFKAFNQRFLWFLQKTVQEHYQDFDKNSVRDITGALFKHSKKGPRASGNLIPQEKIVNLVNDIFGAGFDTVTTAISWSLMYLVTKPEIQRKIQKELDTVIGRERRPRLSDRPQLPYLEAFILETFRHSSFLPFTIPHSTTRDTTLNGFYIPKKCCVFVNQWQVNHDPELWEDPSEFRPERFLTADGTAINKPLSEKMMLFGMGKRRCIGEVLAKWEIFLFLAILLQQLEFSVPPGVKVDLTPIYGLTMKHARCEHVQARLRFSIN
# Sequence of CYP2C9 (P11712 whole entry): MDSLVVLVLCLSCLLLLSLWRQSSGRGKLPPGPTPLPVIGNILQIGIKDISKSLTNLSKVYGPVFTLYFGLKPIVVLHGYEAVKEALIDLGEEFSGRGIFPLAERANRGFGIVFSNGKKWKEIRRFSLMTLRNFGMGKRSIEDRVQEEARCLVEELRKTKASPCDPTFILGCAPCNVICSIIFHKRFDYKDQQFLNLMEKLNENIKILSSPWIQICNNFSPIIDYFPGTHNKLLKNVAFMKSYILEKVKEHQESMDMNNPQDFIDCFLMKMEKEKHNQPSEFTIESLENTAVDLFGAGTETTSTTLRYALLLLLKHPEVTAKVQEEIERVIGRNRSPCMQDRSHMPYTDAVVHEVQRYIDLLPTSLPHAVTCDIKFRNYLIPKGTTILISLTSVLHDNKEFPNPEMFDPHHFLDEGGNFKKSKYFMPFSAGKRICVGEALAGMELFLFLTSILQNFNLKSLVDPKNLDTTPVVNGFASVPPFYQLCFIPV
# Sequence of CYP2C19 (P33261 whole entry): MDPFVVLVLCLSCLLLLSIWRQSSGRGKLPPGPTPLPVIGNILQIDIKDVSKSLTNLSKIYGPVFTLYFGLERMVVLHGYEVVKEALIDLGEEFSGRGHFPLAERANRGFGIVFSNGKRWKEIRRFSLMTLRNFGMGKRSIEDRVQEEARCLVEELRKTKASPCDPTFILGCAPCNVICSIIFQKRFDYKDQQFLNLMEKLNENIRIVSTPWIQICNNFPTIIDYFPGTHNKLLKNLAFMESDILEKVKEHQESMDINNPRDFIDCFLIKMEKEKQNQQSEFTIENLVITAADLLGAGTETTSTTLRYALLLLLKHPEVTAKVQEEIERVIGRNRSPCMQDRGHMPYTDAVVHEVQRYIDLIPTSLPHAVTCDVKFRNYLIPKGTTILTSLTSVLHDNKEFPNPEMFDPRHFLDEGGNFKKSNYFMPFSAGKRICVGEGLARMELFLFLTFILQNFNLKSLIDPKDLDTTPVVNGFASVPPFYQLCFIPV
# Sequence of CYP3A4 (P08684 whole entry): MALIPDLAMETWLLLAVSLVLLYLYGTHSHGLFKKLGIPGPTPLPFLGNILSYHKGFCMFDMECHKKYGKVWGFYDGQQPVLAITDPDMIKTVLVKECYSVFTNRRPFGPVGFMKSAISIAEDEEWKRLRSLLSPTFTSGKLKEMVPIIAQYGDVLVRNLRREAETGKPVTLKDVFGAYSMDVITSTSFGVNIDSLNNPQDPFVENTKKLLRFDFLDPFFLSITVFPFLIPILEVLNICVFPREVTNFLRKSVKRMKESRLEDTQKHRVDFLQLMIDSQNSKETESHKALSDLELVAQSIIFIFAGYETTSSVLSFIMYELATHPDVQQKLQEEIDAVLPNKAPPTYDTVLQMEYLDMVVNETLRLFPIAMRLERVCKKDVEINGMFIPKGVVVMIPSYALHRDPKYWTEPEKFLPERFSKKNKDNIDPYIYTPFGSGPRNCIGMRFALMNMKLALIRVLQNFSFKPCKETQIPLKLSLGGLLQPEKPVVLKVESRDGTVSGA
# Sequence of Rat P2X3 receptor (P49654 whole entry): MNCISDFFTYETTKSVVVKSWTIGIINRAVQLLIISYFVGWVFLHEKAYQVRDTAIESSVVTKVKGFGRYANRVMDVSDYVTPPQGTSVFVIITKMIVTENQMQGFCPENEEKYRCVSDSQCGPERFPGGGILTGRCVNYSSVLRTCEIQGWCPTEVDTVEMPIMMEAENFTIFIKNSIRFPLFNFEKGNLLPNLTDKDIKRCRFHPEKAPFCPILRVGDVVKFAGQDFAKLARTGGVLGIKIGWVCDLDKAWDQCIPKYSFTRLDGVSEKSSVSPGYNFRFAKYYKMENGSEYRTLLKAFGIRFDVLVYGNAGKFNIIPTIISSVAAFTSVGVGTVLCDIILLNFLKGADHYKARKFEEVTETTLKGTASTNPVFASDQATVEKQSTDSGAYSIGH
# Sequence of human P2X3 receptor (P56373 whole entry): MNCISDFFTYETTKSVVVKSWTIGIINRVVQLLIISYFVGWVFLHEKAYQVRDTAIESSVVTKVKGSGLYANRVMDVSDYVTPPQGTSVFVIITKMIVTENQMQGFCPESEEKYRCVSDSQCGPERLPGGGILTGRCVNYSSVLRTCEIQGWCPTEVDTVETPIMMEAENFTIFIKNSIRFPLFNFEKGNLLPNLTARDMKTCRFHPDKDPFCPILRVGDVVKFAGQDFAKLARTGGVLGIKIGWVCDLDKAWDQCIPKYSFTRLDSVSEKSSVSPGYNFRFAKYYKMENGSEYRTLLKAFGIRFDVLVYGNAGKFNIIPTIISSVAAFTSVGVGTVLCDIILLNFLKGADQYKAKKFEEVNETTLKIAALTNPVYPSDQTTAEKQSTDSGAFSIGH
Structure (SMILES),IC50 [5],IC50 [6],IC50 [7],IC50 [8],IC50 [9],also measured
C[C@@H](Cn1c(=O)[nH]/c(=N\c2ccc(Oc3cccc(Cl)n3)cc2)n(Cc2ccc(Cl)cc2)c1=O)C(=O)O [Compound I-014],,,,,,"clearance [1, 10]: 4 mL/min/kg; AUC [1, 11]: 2300 ng·h/mL; AUC [1, 12]: 4890 ng·h/mL"
O=C(O)C1(Cn2c(=O)[nH]/c(=N\c3ccc(Oc4cccc(F)n4)cc3)n(Cc3ccc(Cl)cc3)c2=O)CC1 [Compound I-017],,,,,,"clearance [1, 10]: 2.3 mL/min/kg; AUC [1, 11]: 3790 ng·h/mL; AUC [1, 12]: 6110 ng·h/mL"
C[C@@H](Cn1c(=O)[nH]/c(=N\c2ccc(Oc3ccc(OC(F)F)cn3)cc2)n(Cc2ccc(Cl)cc2)c1=O)C(=O)O [Compound I-022],,,,,,IC50 [2]: 0.011 µM
COC(=O)[C@@H](C)Cn1c(=O)[nH]/c(=N\c2ccc(Oc3ccc(F)cn3)cc2)n(Cc2ccc(F)cc2F)c1=O [Compound I-025],,,,,,IC50 [3]: 0.023 µM
Cc1ccc(Cn2c(=O)n(C[C@H](C)C(=O)O)c(=O)[nH]/c2=N\c2ccc(Oc3ccc(C(F)(F)F)cn3)cc2)cc1 [Compound I-038],,,,,,solubility at 18 h [4]: > 50 µM
Cc1ccc(Cn2c(=O)n(C[C@H](C)C(=O)O)c(=O)[nH]/c2=N\c2ccc(Oc3cccc(C(F)(F)F)n3)cc2)cc1 [Compound I-039],,,,,,solubility at 18 h [4]: > 50 µM
Cc1ccc(Cn2c(=O)n(CC(C)(C)C(=O)O)c(=O)[nH]/c2=N\c2ccc(Oc3ccc(F)cn3)cc2)cc1 [Compound I-041],> 20 µM,> 20 µM,> 20 µM,> 20 µM,> 20 µM,solubility at 18 h [4]: > 50 µM
Cc1ccc(Oc2ccc(/N=c3\[nH]c(=O)n(CC(C)(C)C(=O)O)c(=O)n3Cc3ccc(Cl)cc3)cc2)nc1 [Compound I-058],,,,,,"clearance [1, 10]: 5.8 mL/min/kg; AUC [1, 11]: 1510 ng·h/mL; AUC [1, 12]: 2030 ng·h/mL"
COc1ccnc(Oc2ccc(/N=c3\[nH]c(=O)n(C[C@H](C)C(=O)O)c(=O)n3Cc3ccc(Cl)cc3)cc2)c1 [Compound I-069],> 20 µM,> 20 µM,> 20 µM,> 20 µM,> 20 µM,
Cc1ccc(Cn2c(=O)n(C[C@H](C)C(=O)O)c(=O)[nH]/c2=N\c2ccc(Oc3ccc(Cl)cn3)cc2)cc1 [Compound I-100],,,,,,IC50 [2]: 0.009 µM
Cc1ccc(Cn2c(=O)n([C@@H](C)[C@@H](C)C(=O)O)c(=O)[nH]/c2=N\c2ccc(Oc3cccc(F)n3)cc2)cc1 [Compound I-106],> 20 µM,> 20 µM,> 20 µM,> 20 µM,> 20 µM,
Cc1ccc(Cn2c(=O)n([C@@H](C)[C@@H](C)C(=O)O)c(=O)[nH]/c2=N\c2ccc(Oc3ccc(C)cn3)cc2)cc1 [Compound I-113],,,,,,IC50 [2]: 0.01 µM
C[C@@H](Cn1c(=O)[nH]/c(=N\c2ccc(Oc3ccccn3)cc2)n(Cc2ccc(Cl)cc2)c1=O)C(=O)O [Compound I-127],,,,,,"clearance [1, 10]: 3.8 mL/min/kg; AUC [1, 11]: 2330 ng·h/mL; AUC [1, 12]: 2460 ng·h/mL"
C[C@@H](Cn1c(=O)[nH]/c(=N\c2ccc(Oc3cnc(Cl)cn3)cc2)n(Cc2ccc(Cl)cc2)c1=O)C(=O)O [Compound R-014],> 20 µM,> 20 µM,> 20 µM,> 20 µM,> 20 µM,IC50 [2]: 0.006 µM
C[C@@H](Cn1c(=O)[nH]/c(=N\c2ccc(Oc3cccnn3)c(F)c2)n(Cc2ccc(Cl)cc2)c1=O)C(=O)O [Compound R-037],,,,,,IC50 [2]: 0.008 µM

# The next lines start with results.
IC50 [5],IC50 [6],IC50 [7],IC50 [8],IC50 [9],Structure (SMILES),also measured
> 20 µM,> 20 µM,> 20 µM,> 20 µM,> 20 µM,COc1nccc(Oc2ccc(/N=c3\[nH]c(=O)n([C@@H](C)[C@@H](C)C(=O)O)c(=O)n3Cc3ccc(Cl)cc3)cc2)n1 [Compound R-010],
> 20 µM,> 20 µM,> 20 µM,> 20 µM,> 20 µM,CC(C)(Cn1c(=O)[nH]/c(=N\c2ccc(Oc3cnc(Cl)cn3)cc2)n(Cc2ccc(Cl)cc2)c1=O)C(=O)O [Compound R-027],
> 20 µM,> 20 µM,> 20 µM,> 20 µM,> 20 µM,COc1cc(Oc2ccc(/N=c3\[nH]c(=O)n(C[C@H](C)C(=O)O)c(=O)n3Cc3ccc(Cl)cc3)cc2)cc(F)n1 [Compound R-058],

# Reference: patent US9732060B2, “Aminotriazine derivative and pharmaceutical composition comprising the same” (Shionogi & Co., Ltd., priority 2013, dated 2017)
